Data reported in US20130029970A1 (priority 2009, published 2013).

How the values were obtained:
human CB1 (hCB1) = molecular target: T1, human CB1 (hCB1) (Homo sapiens, UniProt P21554); test: 35S GTPγS binding assay, hCB1 agonist; assay type: biochemical; conditions: GTPγS agonist, HEK-293 membranes; read-out: hCB1 EC50 (GTPyS ag)
T1 construct: (cDNA clone) CNR01L000

human CB2 receptors = molecular target: T2, human CB2 receptors (Homo sapiens, UniProt P34972); test: cAMP assay in HEK-293 cells, hCB2 agonist; assay type: cell-based; conditions: inhibition of forskolin-stimulated cAMP, HEK-293 cells; read-out: hCB2 EC50 (cAMP ag)
T2 construct: (cDNA clone) CNR0200000
T2 sequence (P34972 whole entry): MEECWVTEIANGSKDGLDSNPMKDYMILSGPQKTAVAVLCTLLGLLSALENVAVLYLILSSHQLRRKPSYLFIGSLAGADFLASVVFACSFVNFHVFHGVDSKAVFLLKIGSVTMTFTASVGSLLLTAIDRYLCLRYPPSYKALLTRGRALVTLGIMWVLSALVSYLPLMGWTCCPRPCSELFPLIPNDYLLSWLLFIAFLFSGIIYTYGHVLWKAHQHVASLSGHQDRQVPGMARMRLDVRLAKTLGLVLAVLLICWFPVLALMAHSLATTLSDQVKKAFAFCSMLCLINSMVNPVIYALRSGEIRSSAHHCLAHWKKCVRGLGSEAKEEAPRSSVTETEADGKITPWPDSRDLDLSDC
Procedure, shortened: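 HEK-293 cells stably expressing human CB2, suspended at 1,500,000 cells/mL in HBSS with 10 mM HEPES and 0.1% fatty-acid-free BSA, exposed to test compound plus forskolin (90 uM in the 3× compound solution) for 30 min at 37° C.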

human CB1 receptors = molecular target: T3, human CB1 receptors (Homo sapiens, UniProt P21554); test: cAMP assay in HEK-293 cells, hCB1 agonist; assay type: cell-based; conditions: inhibition of forskolin-stimulated cAMP, HEK-293 cells
T3 construct: (cDNA clone) CNR01L000
T3 sequence (P21554 whole entry): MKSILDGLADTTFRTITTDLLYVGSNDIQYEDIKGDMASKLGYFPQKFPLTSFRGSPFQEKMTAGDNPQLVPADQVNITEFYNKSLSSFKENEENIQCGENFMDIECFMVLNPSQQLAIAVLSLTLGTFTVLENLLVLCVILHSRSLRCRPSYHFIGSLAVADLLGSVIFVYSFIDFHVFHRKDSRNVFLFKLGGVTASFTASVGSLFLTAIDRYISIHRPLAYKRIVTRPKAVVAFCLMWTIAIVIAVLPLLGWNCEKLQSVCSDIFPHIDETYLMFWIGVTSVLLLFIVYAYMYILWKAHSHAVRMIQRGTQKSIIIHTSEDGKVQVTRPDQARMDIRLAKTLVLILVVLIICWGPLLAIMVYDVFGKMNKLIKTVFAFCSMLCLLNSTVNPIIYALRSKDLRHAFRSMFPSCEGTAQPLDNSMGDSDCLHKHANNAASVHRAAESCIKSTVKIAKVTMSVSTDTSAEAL
Procedure, shortened: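 Stable hCB1 HEK-293 cells suspended in HBSS with 10 mM HEPES and 0.1% fatty acid-free BSA, incubated 30 min at 37° C. with compound plus forskolin (90 uM in the 3× compound solution). Lysed cAMP measured by enzyme-fragment kit; EC50 = 50% inhibition of forskolin-stimulated cAMP (forskolin maximum = 100%), sigmoidal fit.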

T1 sequence (P21554 whole entry): as above

| Compound | EC50 (human CB1 (hCB1)) [µM] | EC50 (human CB2 receptors) [µM] | hCB1 EC50 (cAMP ag, nM) (human CB1 receptors) |
| --- | --- | --- | --- |
| COc1ccc(C(=O)c2cc3cc(C)n(CCN4CCCOCC4)c3s2)cn1 [Compound 158, (6-(2-(1,4-oxazepan-4-yl)ethyl)-5-methyl-6H-thieno[2,3-b]pyrrol-2-yl)(6-methoxypyridin-3-yl)methanone] | > 10 | < 0.1 | NS (NS means “Not Significant,” which means less than 30% agonist activity when compared to the positive control.) |
| COc1ccc(C(=O)c2cc3cc(C)n(CCNC4CCOC4)c3s2)cn1 (stereo not drawn) [Compound 164, (6-methoxypyridin-3-yl)(5-methyl-6-(2-((tetrahydrofuran-3-yl)amino)ethyl)-6H-thieno[2,3-b]pyrrol-2-yl)methanone] | > 10 | < 0.1 | NS (NS means “Not Significant,” which means less than 30% agonist activity when compared to the positive control.) |
| COc1ccc(C(=O)c2cc3cc(C)n(CCN4CCCC4)c3s2)cn1 [Compound 167, (6-methoxypyridin-3-yl)(5-methyl-6-(2-(pyrrolidin-1-yl)ethyl)-6H-thieno[2,3-b]pyrrol-2-yl)methanone] | > 10 | < 0.1 | NS (NS means “Not Significant,” which means less than 30% agonist activity when compared to the positive control.) |
